Experimental findings from PubChem BioAssay AID248 (DTP/NCI, 2004) are described below.

Where “and” joins values, the source holds several entries; their conditions need not be identical. Equal entries are not always repeated. Toxic doses and inconclusive results are not listed.

The test system of the assay is L1210 leukemia ip in BDF1 mice, survival T/C. As to the kind of experiment: NCI In Vivo Anticancer Drug Screen. Data for tumor model L1210 Leukemia (intraperitoneal) in B6D2F1 (BDF1) mice. The following applies: endpoint: mean survival time, higher = longer survival. The method in brief:
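In this screen, tumor-bearing mice given compound are compared to those given vehicle, and their survival values are reported as a treated-to-control quotient.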

[1] abbreviates: dose: 100.0 mg/kg/injection, schedule: Q01DX001 (ip), vehicle: saline with Tween-80.
Setting [2] is: dose: 100.0 mg/kg/injection, schedule: Q01DX009 (ip), vehicle: saline with Tween-80.
Setting [3] is: dose: 100.0 mg/kg/injection, schedule: Q04DX002 (ip), vehicle: saline with Tween-80.
Where [4] appears, read: dose: 200.0 mg/kg/injection, schedule: Q01DX001 (ip), vehicle: saline with Tween-80.
Where [5] appears, read: dose: 200.0 mg/kg/injection, schedule: Q01DX009 (ip), vehicle: saline with Tween-80.
The mark [6] stands for this setting: dose: 200.0 mg/kg/injection, schedule: Q04DX002 (ip), vehicle: saline with Tween-80.
Setting [7] is: dose: 400.0 mg/kg/injection, schedule: Q01DX001 (ip), vehicle: saline with Tween-80.
[8] abbreviates: dose: 400.0 mg/kg/injection, schedule: Q01DX009 (ip), vehicle: saline with Tween-80.
[9] abbreviates: dose: 400.0 mg/kg/injection, schedule: Q04DX002 (ip), vehicle: saline with Tween-80.
The mark [10] stands for this setting: dose: 100.0 mg/kg/injection, schedule: Q04DX003 (ip), vehicle: saline with Tween-80.
Setting [11] is: dose: 400.0 mg/kg/injection, schedule: Q04DX003 (ip), vehicle: saline with Tween-80.
The mark [12] stands for this setting: dose: 100.0 mg/kg/injection, schedule: Q01DX001 (ip), vehicle: carboxymethylcellulose (CMC).
Where [13] appears, read: dose: 200.0 mg/kg/injection, schedule: Q01DX001 (ip), vehicle: carboxymethylcellulose (CMC).
The mark [14] stands for this setting: dose: 400.0 mg/kg/injection, schedule: Q01DX001 (ip), vehicle: carboxymethylcellulose (CMC).
Where [15] appears, read: dose: 100.0 mg/kg/injection, schedule: Q04DX003 (ip), vehicle: saline.
Where [16] appears, read: dose: 200.0 mg/kg/injection, schedule: Q04DX003 (ip), vehicle: saline.
Setting [17] is: dose: 200.0 mg/kg/injection, schedule: Q04DX003 (ip), vehicle: saline with Tween-80.
Setting [18] is: dose: 50.0 mg/kg/injection, schedule: Q04DX003 (ip), vehicle: Klucel (hydroxypropylcellulose) (HPC).
Where [19] appears, read: dose: 100.0 mg/kg/injection, schedule: Q04DX003 (ip), vehicle: Klucel (hydroxypropylcellulose) (HPC).

With `COc1cc([N+](=O)[O-])ccc1NC(=O)N(C)C1CCCCC1`, the T/C reads like this: under setting [1], 103 % of control; under setting [2], 98 % of control and 91 % of control; under setting [3], 99 % of control and 105 % of control; under setting [4], 100 % of control; under setting [5], 92 % of control and 96 % of control; under setting [6], 94 % of control and 86 % of control. In addition, the T/C runs as follows: under setting [7], 94 % of control; under setting [8], 94 % of control and 98 % of control; under setting [9], 94 % of control and 89 % of control.

As to `CC1(C)CCC(C#N)=C1N`, the T/C (dose: 12.5 mg/kg/injection, schedule: Q01DX009 (ip), vehicle: saline with Tween-80) was 93 % of control; the T/C (dose: 25.0 mg/kg/injection, schedule: Q01DX009 (ip), vehicle: saline with Tween-80) is 105 % of control; the T/C (dose: 50.0 mg/kg/injection, schedule: Q01DX009 (ip), vehicle: saline with Tween-80) is 88 % of control.

As for `FC(F)(F)c1cccc(P(c2cccc(C(F)(F)F)c2)c2ccccc2C(F)(F)F)c1`, the T/C is, setting by setting: under setting [10], 95 % of control; under setting [11], 87 % of control.

As for `CC(=O)OC(CO)C(NC(=O)N1C(=O)C=CC1=O)NC(=O)N1C(=O)C=CC1=O` (configuration not stated), the T/C was 95 % of control under setting [12], 101 % of control under setting [13] and 113 % of control under setting [14].

Turning to `Cc1cnc2c(N)nc(-c3ccccc3)nc2n1`, the T/C runs as follows: (dose: 100.0 mg/kg/injection, schedule: Q01DX001 (ip), vehicle: Klucel (hydroxypropylcellulose) (HPC)) 94 % of control; (dose: 200.0 mg/kg/injection, schedule: Q01DX001 (ip), vehicle: Klucel (hydroxypropylcellulose) (HPC)) 103 % of control; (dose: 400.0 mg/kg/injection, schedule: Q01DX001 (ip), vehicle: Klucel (hydroxypropylcellulose) (HPC)) 100 % of control.

Turning to `O=S(=O)(Nc1cc(N2CCOCC2)c(O)c2ccccc12)c1ccccc1`, the T/C is 95 % of control (dose: 25.0 mg/kg/injection, schedule: Q01DX001 (ip), vehicle: saline with Tween-80); 97 % of control (dose: 50.0 mg/kg/injection, schedule: Q01DX001 (ip), vehicle: saline with Tween-80); 94 % of control under setting [1].

On to `OCC1CCCN2CCCCC12` (configuration not stated), for which the T/C was 98 % of control under setting [15] and 90 % of control under setting [16].

For the molecule `O=c1[nH]c(C(F)(F)F)nc2c1nc1n2CCC1`, the T/C under setting [2] is 103 % of control; the T/C under setting [10] is 91 % of control; the T/C under setting [5] was 102 % of control; the T/C under setting [17] is 96 % of control; the T/C under setting [8] was 97 % of control; the T/C under setting [11] was 86 % of control.

Regarding `CCCN(CCC)P(c1ccccc1)N(CCC)CCC`, the T/C runs as follows: under setting [3], 93 % of control; under setting [6], 101 % of control.

For the molecule `Oc1ccc2c(c1)Cc1c-2nc2ccccc2c1Cl`, the T/C is, setting by setting: (dose: 50.0 mg/kg/injection, schedule: Q01DX001 (ip), vehicle: saline) 97 % of control; (dose: 100.0 mg/kg/injection, schedule: Q01DX001 (ip), vehicle: saline) 98 % of control; (dose: 200.0 mg/kg/injection, schedule: Q01DX001 (ip), vehicle: saline) 97 % of control; (dose: 400.0 mg/kg/injection, schedule: Q01DX001 (ip), vehicle: saline) 93 % of control.

With `COCC(=O)C(C(C)=O)C(c1ccc(N(C)C)cc1)C(C(C)=O)C(=O)COC` (configuration not stated), the T/C reads like this: under setting [10], 98 % of control; under setting [17], 89 % of control; under setting [11], 91 % of control.

For `N#CC(OS(=O)(=O)c1ccccc1)c1ccccc1` (configuration not stated), the T/C was 89 % of control (dose: 50.0 mg/kg/injection, schedule: Q01DX001 (ip), vehicle: other); 97 % of control (dose: 100.0 mg/kg/injection, schedule: Q01DX001 (ip), vehicle: other); 105 % of control (dose: 200.0 mg/kg/injection, schedule: Q01DX001 (ip), vehicle: other).

Take `CC(=O)n1cc(F)c(=O)[nH]c1=O`: the T/C runs as follows: (dose: 2.1 mg/kg/injection, schedule: Q01DX009 (ip), vehicle: saline with Tween-80) 108 % of control; (dose: 3.1 mg/kg/injection, schedule: Q01DX009 (ip), vehicle: saline with Tween-80) 111 % of control; (dose: 6.25 mg/kg/injection, schedule: Q04DX003 (ip), vehicle: saline) 108 % of control; (dose: 12.5 mg/kg/injection, schedule: Q04DX003 (ip), vehicle: saline) 115 % of control; (dose: 25.0 mg/kg/injection, schedule: Q01DX009 (ip), vehicle: saline) 152 % of control; (dose: 25.0 mg/kg/injection, schedule: Q04DX003 (ip), vehicle: saline) 123 % of control. Besides, the T/C is, setting by setting: (dose: 50.0 mg/kg/injection, schedule: Q04DX003 (ip), vehicle: saline) 151 % of control; (dose: 100.0 mg/kg/injection, schedule: Q01DX009 (ip), vehicle: saline) 101 % of control; under setting [10], 188 % of control; under setting [15], 207 % of control; (dose: 150.0 mg/kg/injection, schedule: Q01DX001 (ip), vehicle: saline) 152 % of control; under setting [16], 113 % of control. The T/C (dose: 300.0 mg/kg/injection, schedule: Q01DX001 (ip), vehicle: saline) was 151 % of control.

Regarding `COc1ccc(C[n+]2cccc(CNC(=O)COc3ccc(Cl)c(Cl)c3)c2)cc1`, the T/C by setting is: (dose: 25.0 mg/kg/injection, schedule: Q04DX003 (ip), vehicle: Klucel (hydroxypropylcellulose) (HPC)) 98 % of control; under setting [18], 106 % of control; under setting [19], 107 % of control and 108 % of control.

Take `O=C(O)c1cccc(Cl)c1F`: the T/C was 97 % of control (dose: 50.0 mg/kg/injection, schedule: Q04DX002 (ip), vehicle: saline with Tween-80); 97 % of control and 107 % of control under setting [3]; 97 % of control under setting [6].

Take `O=C(Nc1ccc(Cl)cc1[N+](=O)[O-])Oc1cc2ccccc2cc1C(=O)Nc1ccccc1`: the T/C by setting is: under setting [2], 100 % of control and 88 % of control; under setting [3], 93 % of control and 94 % of control; under setting [5], 86 % of control and 87 % of control; under setting [6], 94 % of control and 101 % of control; under setting [8], 93 % of control and 96 % of control; under setting [9], 94 % of control and 90 % of control.

As to `CCCCCCOC(=O)c1cccc2c1-c1ccccc1C2=O`, the T/C runs as follows: under setting [12], 93 % of control; under setting [13], 93 % of control; under setting [14], 98 % of control.

On to `CCC(Cl)COP(=O)(OC(c1ccc(Cl)c(Cl)c1)P(=O)(OCC(Cl)CC)OCC(Cl)CC)C(CC)CCl` (configuration not stated), for which the T/C under setting [1] was 104 % of control, the T/C under setting [4] was 95 % of control and the T/C under setting [7] was 101 % of control.

Regarding `CCOC(=O)C(c1ccsc1)C(C(=O)OCC)c1cccs1` (configuration not stated), the T/C is, setting by setting: under setting [1], 92 % of control; under setting [4], 98 % of control; under setting [7], 92 % of control.

For the molecule `COc1ccc(CCC(C(=O)O)c2ccc(OC)c(OC)c2)cc1OC` (configuration not stated), the T/C was 98 % of control and 100 % of control (dose: 45.0 mg/kg/injection, schedule: Q01DX009 (ip), vehicle: Klucel (hydroxypropylcellulose) (HPC)); 96 % of control under setting [18]; 93 % of control and 100 % of control (dose: 65.0 mg/kg/injection, schedule: Q01DX009 (ip), vehicle: Klucel (hydroxypropylcellulose) (HPC)); 94 % of control and 104 % of control (dose: 100.0 mg/kg/injection, schedule: Q01DX009 (ip), vehicle: Klucel (hydroxypropylcellulose) (HPC)); 103 % of control under setting [19]; 93 % of control and 102 % of control (dose: 150.0 mg/kg/injection, schedule: Q01DX009 (ip), vehicle: Klucel (hydroxypropylcellulose) (HPC)). For the same molecule, the T/C runs as follows: (dose: 200.0 mg/kg/injection, schedule: Q01DX009 (ip), vehicle: Klucel (hydroxypropylcellulose) (HPC)) 106 % of control; (dose: 200.0 mg/kg/injection, schedule: Q04DX003 (ip), vehicle: Klucel (hydroxypropylcellulose) (HPC)) 93 % of control and 96 % of control; (dose: 400.0 mg/kg/injection, schedule: Q01DX009 (ip), vehicle: Klucel (hydroxypropylcellulose) (HPC)) 101 % of control; (dose: 400.0 mg/kg/injection, schedule: Q04DX003 (ip), vehicle: Klucel (hydroxypropylcellulose) (HPC)) 98 % of control.
